In patent publication US5321030A, “Creatine analogs having antiviral activity” (priority 1991, dated 1994):
Converted amounts (≈) assume the structure as drawn. “And” between values parts separate entries of the source, which are not always exact repeats. Equal values may be shown once. Read-outs that look alike come from different tables or passages of the source.

Key:
in vitro = conditions: monkey, vero cells
in vivo = assay type: in vivo
DU 145 cells = assay: Drug cytotoxicity in CPE assay, DU 145 cells; conditions: 10 mg/ml, 0 PFUs
[1] = test system: Guinea Pig Cytomegalovirus, Strain 22122; assay: CPE reduction assay, guinea pig cytomegalovirus in GPE cells; assay type: cell-based; design: TI50 (CD50 ÷ ED50): unit not given here; conditions: for Average CPE: virus controls 4.0
[2] = Dietary feeding of cyclocreatine, tolerance and uptake; conditions: mice, up to 1% of diet for 2 weeks or over 4 weeks
Vero cells = conditions: monkey
HSV-2 = assay: Cytopathic effect (CPE) assay, HSV-2
HSV-1 = assay: Plaque assay, plaquing efficiency of HSV-1 in serum-starved Vero cells; assay type: cell-based, Herpes Simplex Type I (HSV-1)
Procedure: Plaque assays were performed on confluent, serum-starved monolayers of Vero cells in 100 mm dishes (Corning). Growth medium was removed by aspiration and 10 ml of low serum media was added. Monolayers were grown in this medium for 5 days. […] After incubation, the inoculum was removed by aspiration and replaced with 2 ml of agarose-medium maintained at 42° C. The agarose-medium overlay contained a fresh 1:1 mixture of: […] A plaque assay was used to confirm the antiviral activity of cyclocreatine detected in the cytopathogenicity studies described above. Vero cells were grown in 100 mm dishes and were serum-starved. Each dish, with the exception of uninfected controls, was inoculated with HSV-1 virus and incubated with various concentrations of cyclocreatine until plaques appeared in the plates exposed to virus alone.

[3] = test system: Influenza B/Hong Kong/5/72; assay: CPE-reduction assay, Influenza B in MDCK cells; assay type: cell-based; conditions: 62.5 μg/ml-4 mg/ml; only at the highest concentration
Procedure: Cyclocreatine was prepared at a concentration of 100 mg/ml in MEM, without serum, 0.18% NaHCO3, 50 μg/ml gentamicin. Further dilutions (2-fold dilution scheme) were made in MEM without serum.
Cells (0.2 ml/well) were seeded in 96-well flat bottom tissue culture plates, (Corning Glass Works, Corning, N.Y.). The cells were incubated overnight in order to establish cell monolayers. Growth medium was decanted from the 96-well plates and various dilutions of compound were added to wells of the plate (4 wells/dilution; 0.1 ml/well). Medium alone was added to uninfected cell and virus (no drug) control wells (0.1 ml/well). Virus, diluted in test medium (0.1 ml final volume), was added to all compound test wells of the plate (3 wells/dilution) and to 9 virus control wells. Test medium (0.1 ml/well) without virus was added to all toxicity control wells (1 well/dilution for each compound tested) and to 3 uninfected cell control wells.
The plates were incubated at 37° C. until virus control wells (no drug) had CPE readings near 100% CPE. Cells were then examined microscopically for virus CPE and graded on a scale of 0-4, with 0 being no CPE and 4 being 100% CPE. The cells in toxicity control wells were observed microscopically and graded for morphological changes due to cytotoxicity. […]

[4] = Phosphorylation of cyclocreatine in cultured cells
creatine kinase [5] = molecular target: T1, creatine kinase (Oryctolagus cuniculus, UniProt P00563); conditions: cited from earlier work
creatine kinase [6] = molecular target: T1, creatine kinase; assay: Phosphorylation by creatine kinase, coupled assay with pyruvate kinase and LDH; assay type: biochemical; conditions: 40 mM
Procedure: Compound 5/6 (AM 361), where R=CH3, was prepared as described above and assayed for phosphorylation by creatine kinase in a coupled assay with pyruvate kinase and lactate dehydrogenase (LDH) as described (Bergmeyer, H. U., ed. (1974), In: Methods of Enzymatic Analysis, Second English Edition, Volume 4, (Verlag Chemie Weinheim and Academic Press, Inc.: New York, London) pp. 1772-1779). Each compound listed in Table 11 below was tested at a concentration of 40 mM. Compound 5/6 (AM 361) was slowly phosphorylated.

[7] = test system: Murine Cytomegalovirus (MCMV), strain Smith; assay: Plaque reduction, murine cytomegalovirus in C127I cells; assay type: cell-based; conditions: Murid betaherpesvirus 1; 10 mg/ml
[8] = Cytotoxicity in plaque reduction assay, CV-1 cells; assay type: cell-based, African Green Monkey; conditions: monkey, Table 9B, read-out: CD50 (the source's name)
[9] = test system: Herpes Simplex Virus, Type 1, strain BW10168 (TK-); assay: microbe, parasite or virus in culture; assay type: cell-based; design: TI50 (CD50 ÷ ED50): unit not given beside the values; conditions: for Average CPE: virus controls 4.0; for EC50: Human alphaherpesvirus 1, Vero

T1 sequence (P00563 whole entry): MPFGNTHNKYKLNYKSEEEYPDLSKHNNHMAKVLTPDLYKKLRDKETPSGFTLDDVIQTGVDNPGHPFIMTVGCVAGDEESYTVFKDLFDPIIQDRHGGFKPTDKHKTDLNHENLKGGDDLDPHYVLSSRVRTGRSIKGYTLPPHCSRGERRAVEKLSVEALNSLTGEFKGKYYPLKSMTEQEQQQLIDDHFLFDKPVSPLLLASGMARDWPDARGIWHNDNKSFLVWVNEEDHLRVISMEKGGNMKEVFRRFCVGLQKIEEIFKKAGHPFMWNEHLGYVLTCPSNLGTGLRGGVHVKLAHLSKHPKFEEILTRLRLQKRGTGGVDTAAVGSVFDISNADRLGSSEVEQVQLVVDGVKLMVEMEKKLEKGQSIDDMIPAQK

With `NC1=NCCN1CC(=O)O` [cyclocreatine, 1-carboxymethyl-2-iminoimidazolidine] the CC50 (in vitro) was greater than 4000 µg/mL, the “tolerance in the diet” value (in vivo; 1% in mouse chow) was “well-tolerated” and the “tolerance in toxicity control” value (in vivo; cream topical, sham-infected mice) was “well-tolerated and caused no adverse effects to the vaginal area”. For the same compound, the survival (in vivo; mouse, in vivo, 1 %, read-out: Survivors/Total (%)) was 100%, the “Weight Change” value (in vivo; uninfected, AM-285 1% dietary, combined animal weights day 0 to day 15) was 7.8 g and the cytotoxicity (DU 145 cells) was “some cytotoxicity”. For the same compound, the “Average CPE” value ([1]; AM-285 156.25 μg/ml) was 4.0, the “Average CPE” value ([1]; AM-285 312.5 μg/ml) was 4.0 and the “Average CPE” value ([1]; AM-285 625 μg/ml) was 3.5. The “Average CPE” value ([1]; AM-285 1250 μg/ml) was 3.3, the “Average CPE” value ([1]; AM-285 2500 μg/ml) was 2.5 and the “Average CPE” value ([1]; AM-285 5000 μg/ml) was 1.7. For the same compound, the “Average CPE” value ([1]; AM-285 10000 μg/ml) was 0.0, the EC50 ([1]; Caviid betaherpesvirus 2, GPE cells, Table 3, read-out: ED50 (the source's name)) was 3270 µg/mL (≈ 22.9 mM) and the “TI50 (CD50 ÷ ED50)” value ([1]; GPE cells, Table 3) was greater than 3.0. For the same compound, the “effect on CPE” value ([1]; between 0.625 and 5.0 mg/ml) was “An inhibitory effect”, the “tolerance of dietary cyclocreatine” value [2] was “without gross adverse effects” and the CC50 (Vero cells) was greater than 28 mM. The CD50 (Vero cells) was “greater than 4 mg/ml”, the EC50 (HSV-2; Human alphaherpesvirus 2, Vero, read-out: ED50) was 1690 µg/mL and 11 mM and the EC (60 or 70) (HSV-2; Human alphaherpesvirus 2, Vero, read-out: concentration required to inhibit cytopathogenicity by 60% or 70%) was 35000 µM. The “effect on cytopathic effect” value (HSV-2; contact-inhibited A459 cells) was “inhibited the cytopathic effect”, the “effect on cytopathic effect” value (HSV-2; contact-inhibited BalbC/3T3 cells, FIG. 4A) was “inhibited the cytopathic effect” and the “effect on cytopathic effect” value (HSV-2; serum-starved DU145 cells, FIG. 6A) was “inhibited the cytopathic effect”. For the same compound, the TI (HSV-2; serum-starved Vero cells) was greater than 5.5, the “effect on cytopathic effect” value (HSV-2; serum-starved Vero cells, FIG. 2A) was “inhibits the cytopathic effect” and the “effect on plaquing efficiency” value (HSV-1; FIG. 9) was “reduced the plaquing efficiency”. For the same compound, the number of plaques (HSV-1; second experiment, 4 mg/ml (755 at 0 mg/ml)) was 120, the “effect on CPE” value [3] was “slight inhibitory effect” and the metabolised ([4]; a2058 cells) was 13%. For the same compound, the metabolised ([4]; du 145 cells) was 76%, the metabolised ([4]; me180 cells) was 85% and the metabolised ([4]; vero cells) was 68%. For the same compound, the “Vmax/Km ratio relative to creatine” value (creatine kinase [5]; forward reaction in vitro) was “approximately one-fifth”, the “initial rate of phosphorylation by creatine kinase, % of that of creatine” value (creatine kinase [5]; in vitro, forward reaction) was 31% and the “Vmax, % of that of creatine” value (creatine kinase [5]; measured at 1° C.) was 90%. The Ki (creatine kinase [5]; reverse reaction at 1° C., read-out: Ki, competitive inhibitor of P-creatine) was 44 mM, the “% Rate of Creatine” value (creatine kinase [6]) was 46% and the “Δ in Absorbance/min” value (creatine kinase [6]) was 0.54. The inhibition at 10000 µg/mL [7] was 53%, the CC50 [8] was 5790 µg/mL (≈ 40.4 mM) and the “Average CPE” value ([9]; AM-285 62.5 μg/ml) was 3.2. For the same compound, the “Average CPE” value ([9]; AM-285 125 μg/ml) was 3.5, the “Average CPE” value ([9]; AM-285 260 μg/ml) was 3.2 and the “Average CPE” value ([9]; AM-285 500 μg/ml) was 1.7. For the same compound, the “Average CPE” value ([9]; AM-285 1000 μg/ml) was 1.8, the “Average CPE” value ([9]; AM-285 2000 μg/ml) was 2.0 and the “Average CPE” value ([9]; AM-285 4000 μg/ml) was 0.7. For the same compound, the EC50 ([9]; read-out: ED50, Vero cells, Table 8) was 384 µg/mL (≈ 2.69 mM), the EC50 ([9]; read-out: ED50, as stated in text) was ~900 µg/mL and ~6.3 mM and the “TI50 (CD50 ÷ ED50)” value ([9]; Vero cells, Table 8) was greater than 4.5.
